Data on 55 compounds can be found in US8552032B2, “Bicyclic derivatives useful as inhibitors of DPP-1” (Janssen Pharmaceutica NV, priority 2009, dated 2013).

T1 sequence (P53634 25-463): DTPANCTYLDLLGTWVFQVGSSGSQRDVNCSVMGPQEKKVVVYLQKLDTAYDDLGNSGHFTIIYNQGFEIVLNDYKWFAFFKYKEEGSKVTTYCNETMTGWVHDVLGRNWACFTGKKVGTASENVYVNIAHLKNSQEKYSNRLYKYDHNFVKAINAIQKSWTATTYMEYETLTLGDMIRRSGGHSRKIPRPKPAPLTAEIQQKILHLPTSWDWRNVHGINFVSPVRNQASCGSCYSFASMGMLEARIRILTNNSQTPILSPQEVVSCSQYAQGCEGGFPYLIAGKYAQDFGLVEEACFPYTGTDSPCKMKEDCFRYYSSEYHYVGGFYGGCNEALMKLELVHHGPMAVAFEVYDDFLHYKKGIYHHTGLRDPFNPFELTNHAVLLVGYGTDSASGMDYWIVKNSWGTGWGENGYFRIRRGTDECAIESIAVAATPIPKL

This assay has as its target T1, recombinant human DPP-1 (Cathepsin C) (Homo sapiens, UniProt P53634).
T1 construct: made in house
The assay is described as follows: DPP-1 Inhibition Assay (in vitro), fluorogenic substrate GR-AMC. As to conditions: 0.15 nM DPP-1, 10 uM GR-AMC, pH 7.0, room temperature; average value where tested multiple times. In kind it is biochemical. Here is the method:
Test compounds were assessed for DPP-1 (Cathepsin C) inhibitory activity using a fluorogenic substrate, GR-AMC (Glycine-Arginine-amino-4-methylcoumarin, Bachem, 1-1215). The amount of amino-methylcoumarin released is proportional to the DPP-1 activity, and the reaction is monitored kinetically with a Molecular Devices plate reader using black 96-well plates.
All compounds were tested under room temperature conditions. The assay buffer consisted of 50 mM HEPES, pH 7.0, 100 mM NaCl, 2 mM glutathione (GSH), and 0.002% TWEEN 20. GSH and TWEEN 20 were added to the buffer fresh daily. Just prior to use, an in-house preparation of recombinant human DPP-1 (240 μM stock, MW 49.6 kD) was diluted 600-fold in assay buffer containing fresh 2 mM dithiothreitol (DTT) to activate the enzyme, then diluted into assay buffer (without DTT) 133-fold for a DPP-1 working solution of 3 nM. Test compounds were diluted in DMSO for 20× their final assay concentrations.
Additions to a 96-well black Costar 3915 plates were as follows: 90 μL of 11 μM GR-AMC, 5 μL test compound (followed by mixing), and 5 μL 3 nM DPP1 to start the reaction. Fluorescent reactions were monitored kinetically at 360 nm excitation, 440 nm emission on a Molecular Devices Spectramax XPS reader. The Softmax Pro software of the reader determined the initial velocity of the selected data (the first 3-5 minutes of the reaction), and the best linear regression fit of the initial kinetic data. Final assay conditions were 0.15 nM DPP-1, 10 uM GR-AMC, 50 mM HEPES, pH 7.0, 100 mM NaCl, 2 mM GSH, 0.002% TWEEN 20, 1 uM DTT, 5.0% DMSO. Initial velocity rates were plotted vs. test compound concentration by use of a four-parameter logistics equation (nonlinear regression, sigmoidal dose-response (variable slope), with fixed Hill (1.0) using GraphPad Prism® software for determination of DPP-1 IC50. Within-run assay coefficient of variation (CV) was generally <10%; between-run CV <20%.
Representative compounds of the present invention were tested according to the procedure as described above, with results as listed in Table 12, below.
Regarding `CC[C@H](N)C(=O)NCCCc1cc2cc(C(=O)Nc3ccc(OC)c(OC)c3)ccc2[nH]1` (single isomer, unassigned) [Compound 110], the IC50 is greater than 10000 nM.

On to `N[C@@H](Cc1cccs1)C(=O)N1CCC(c2cc3ccccc3o2)CC1` [Compound 1], for which the IC50 is 1200 nM.

Turning to `COc1ccc(-c2ccc3[nH]c(C4CCN(C(=O)[C@@H](N)Cc5cccs5)CC4)cc3c2)cc1OC` [Compound 2, (S)-2-amino-1-(4-(5-(3,4-dimethoxyphenyl)-1H-indol-2-yl)piperidin-1-yl)-3-(thiophen-2-yl)propan-1-one], the IC50 amounted to 94 nM.

As for `N[C@@H](Cc1cccs1)C(=O)N1CCC(c2cc3cc(-c4ccc5c(c4)OCCO5)ccc3[nH]2)CC1` [Compound 3], the IC50 was found to be 270 nM.

In the case of `COc1ccc(-c2ccc3[nH]c(C4CCN(C(=O)[C@@H](N)Cc5cccs5)CC4)cc3c2)cc1` [Compound 4], the IC50 was found to be 330 nM.

For the compound `NC(=O)c1cccc(-c2ccc3[nH]c(C4CCN(C(=O)[C@@H](N)Cc5cccs5)CC4)cc3c2)c1` [Compound 5], the IC50 is 300 nM.

For the compound `N[C@@H](Cc1cccs1)C(=O)N1CCC(c2cc3cc(-c4ccc5c(c4)OCO5)ccc3[nH]2)CC1` [Compound 6], the IC50 was found to be 260 nM.

As to `COc1ccc(NC(=O)c2ccc3[nH]c(C4CCN(C(=O)[C@@H](N)Cc5cccs5)CC4)cc3c2)cc1OC` [Compound 7], the IC50 was 140 nM.

For the compound `NC(=O)c1cccc(-c2ccc3[nH]c(C4CCN(C(=O)[C@@H](N)Cc5nccs5)CC4)cc3c2)c1` [Compound 8], the IC50 is 460 nM.

Regarding `CC[C@H](N)C(=O)N1CCC(c2cc3cc(-c4ccc(OC)c(OC)c4)ccc3[nH]2)CC1` [Compound 9], the IC50 was 3700 nM.

In the case of `COc1ccc(-c2ccc3[nH]c(C4CCN(C(=O)[C@@H](N)Cn5cccn5)CC4)cc3c2)cc1OC` [Compound 11], the IC50 was roughly 12000 nM.

As to `COc1ccc(-c2ccc3[nH]c(C4CCN(C(=O)[C@@H](N)CC5CCC5)CC4)cc3c2)cc1OC` [Compound 12], the IC50 worked out at 14000 nM.

With `COc1ccc(-c2ccc3[nH]c(C4CCN(C(=O)[C@@H](N)Cc5ccco5)CC4)cc3c2)cc1OC` [Compound 13], the IC50 stood at 850 nM.

As for `COc1ccc(-c2ccc3[nH]c(C4CCN(C(=O)[C@@H](N)Cc5cn(C)cn5)CC4)cc3c2)cc1OC` [Compound 14], the IC50 is 3370 nM.

For `COc1ccc(-c2ccc3[nH]c(C4CCN(C(=O)[C@@H](N)Cc5ccsc5)CC4)cc3c2)cc1OC` [Compound 15], the IC50 was 2200 nM.

In the case of `COc1ccc(-c2ccc3[nH]c(C4CCN(C(=O)[C@@H](N)Cc5cccs5)CC4)nc3c2)cc1OC` [Compound 18, (S)-2-amino-1-(4-(5-(3,4-dimethoxyphenyl)-1H-benzo[d]imidazol-2-yl)piperidin-1-yl)-3-(thiophen-2-yl)propan-1-one], the 50% inhibitory concentration (IC50) turned out to be 210 nM.

For `NC(=O)c1cccc(-c2ccc3[nH]c(C4CCN(C(=O)[C@@H](N)Cc5cccs5)CC4)nc3c2)c1` [Compound 19], the half-maximal inhibitory concentration (IC50) turned out to be 240 nM.

In the case of `N#Cc1cccc(-c2ccc3[nH]c(C4CCN(C(=O)[C@@H](N)Cc5cccs5)CC4)cc3c2)c1` [Compound 20], the IC50 turned out to be 200 nM.

As to `N[C@@H](Cc1cccs1)C(=O)N1CCC(c2cc3cc(-c4cccc(C(=O)O)c4)ccc3[nH]2)CC1` [Compound 21], the IC50 worked out at 540 nM.

As to `COc1ccc(-c2ccc3[nH]c(C4CCN(C(=O)[C@@H](N)Cc5nc(C)cs5)CC4)cc3c2)cc1OC` [Compound 22], the IC50 amounted to 18000 nM.

Turning to `N[C@@H](Cc1cccs1)C(=O)N1CCC(c2cc3cc(-c4cccnc4)ccc3[nH]2)CC1` [Compound 23], the IC50 turned out to be 110 nM.

In the case of `COc1ccc(-c2ccc3[nH]c(C4CCN(C(=O)[C@@H](N)Cc5ccc(Cl)s5)CC4)cc3c2)cc1OC` [Compound 24], the IC50 came to 5800 nM.

`COc1ccc(-c2ccc3[nH]c(C4CCN(C(=O)[C@@H](N)Cc5cccs5)CC4)cc3c2)cn1` [Compound 25]: the IC50 stood at 250 nM.

For `N[C@@H](Cc1cccs1)C(=O)N1CCC(c2cc3cc(-c4ccncc4)ccc3[nH]2)CC1` [Compound 26], the IC50 stood at 230 nM.

Take `N[C@@H](Cc1cccs1)C(=O)N1CCC(c2cc3cc(-c4ccc(C(=O)O)cc4)ccc3[nH]2)CC1` [Compound 27]: the IC50 was found to be 590 nM.

Regarding `COc1ccc(-c2ccc3[nH]c(C4CCN(C(=O)C(N)c5cccs5)CC4)cc3c2)cc1OC` (stereo not shown) [Compound 28], the IC50 is greater than 20000 nM.

`COc1ccc(-c2ccc3[nH]c(C4CCN(C(=O)C(N)c5ccco5)CC4)cc3c2)cc1OC` (stereo not shown) [Compound 29]: the IC50 is greater than 20000 nM.

As to `COc1ccc(-c2ccc3[nH]c(C4CCN(C(=O)C(N)c5ccsc5)CC4)cc3c2)cc1OC` (stereo not shown) [Compound 30], the IC50 was greater than 20000 nM.

With `N[C@@H](Cc1cccs1)C(=O)NCCc1cc2ccccc2o1` [Compound 35], the half-inhibitory concentration (IC50) came to 1300 nM.

For `CC[C@H](N)C(=O)NCCc1cc2cc(C(=O)Nc3ccc(OC)c(OC)c3)ccc2[nH]1` [Compound 36], the IC50 was greater than 10000 nM.

Take `N[C@@H](Cc1cccs1)C(=O)NCCc1nc2ccccc2[nH]1` [Compound 37, (S)—N-(2-(1H-benzo[d]imidazol-2-yl)ethyl)-2-amino-3-(thiophen-2-yl)propanamide]: the IC50 is 4250 nM.

Regarding `CC[C@H](N)C(=O)NCCc1nc2ccccc2[nH]1` [Compound 38], the IC50 turned out to be 6500 nM.

Regarding `CC[C@H](N)C(=O)NCCc1nc2ccccc2n1C` [Compound 39], the 50% inhibitory concentration (IC50) came out at 43000 nM.

Turning to `CC[C@H](N)C(=O)NCCCc1cc2ccccc2[nH]1` [Compound 40, (S)—N-(3-(1H-indol-2-yl)propyl)-2-aminobutanamide], the IC50 was determined as 2900 nM.

Regarding `CC[C@H](N)C(=O)NCCCc1cc2ccccc2n1C` [Compound 41, (S)-2-amino-N-(3-(1-methyl-1H-indol-2-yl)propyl)butanamide], the IC50 turned out to be 6300 nM.

On to `CC[C@H](N)C(=O)NCCCc1cc2ccccc2o1` [Compound 42], for which the IC50 was 3300 nM.

For the compound `CC[C@H](N)C(=O)NCCCc1csc2ccccc12` [Compound 43], the IC50 stood at 14000 nM.

With `CC[C@H](N)C(=O)NCCCc1cc2cc(-c3ccccc3)ccc2o1` [Compound 45], the IC50 was determined as 9600 nM.

Consider `CC[C@H](N)C(=O)NCCCc1cc2ccc(C(=O)N(CC)CC)cc2o1` [Compound 46], for which the concentration for half-maximal inhibition (IC50) worked out at 42000 nM.

For `CC[C@H](NC(=O)OC(C)(C)C)C(=O)NCCCc1cc2cc(C(=O)O)ccc2[nH]1` [Compound 47, (S)-2-(3-(2-(tert-butoxycarbonylamino)butanamido)propyl)-1H-indole-5-carboxylic acid], the IC50 is 53000 nM.

With `CC[C@H](N)C(=O)NCCCc1cc2cc(C(=O)Nc3nc[nH]n3)ccc2[nH]1` [Compound 48], the IC50 was 6300 nM.

With `CC[C@H](N)C(=O)NCCCc1cc2cc([N+](=O)[O-])ccc2o1` [Compound 49], the half-maximal inhibitory concentration (IC50) is 19000 nM.

For `CC[C@H](N)C(=O)NCCCc1cc2cc(C(=O)Nc3ccc(OC)c(OC)c3)ccc2[nH]1` [Compound 50, (S)-2-(3-(2-aminobutanamido)propyl)-N-(3,4-dimethoxyphenyl)-1H-indole-5-carboxamide], the half-maximal inhibitory concentration (IC50) is 240 nM.

For `CC[C@H](N)C(=O)NCCCc1cc2cc(C(=O)Nc3ccccc3)ccc2o1` [Compound 51], the IC50 was determined as 4100 nM.

For the compound `CC[C@H](N)C(=O)NCCCc1cc2cc(C(=O)Nc3cccnc3)ccc2o1` [Compound 52], the IC50 was found to be 4000 nM.

Take `CC[C@H](N)C(=O)NCCCc1cc2cc(C(=O)NCc3ccccc3)ccc2o1` [Compound 53]: the IC50 came to 7400 nM.

Regarding `CC[C@H](N)C(=O)NCCCc1cc2cc(C(=O)Nc3cccc4ccccc34)ccc2o1` [Compound 54], the IC50 came out at 850 nM.

On to `CC[C@H](N)C(=O)NCCCc1cc2cc(C(=O)Nc3cccc4ncccc34)ccc2o1` [Compound 55], for which the IC50 was found to be 220 nM.

As to `N[C@@H](Cc1cccs1)C(=O)NCCCc1cc2ccccc2o1` [Compound 56], the IC50 turned out to be 1100 nM.

For the compound `CC[C@H](N)C(=O)NCCCc1cc2cc(C(=O)Nc3ccc4ncsc4c3)ccc2o1` [Compound 57], the IC50 was 700 nM.

Regarding `CC[C@H](N)C(=O)NCCCc1cc2cc(C(=O)Nc3ccc(OC)c(OC)c3)ccc2o1` [Compound 58], the IC50 stood at 730 nM.

Regarding `CC[C@H](N)C(=O)NCCCc1cc2cc(C(=O)Nc3cccc4c3ncn4C)ccc2o1` [Compound 59], the IC50 was 1400 nM.

On to `CC[C@H](N)C(=O)NCCCc1cc2cc(C(=O)Nc3cc[nH]n3)ccc2[nH]1` [Compound 61], for which the IC50 is 4300 nM.

Take `CC[C@H](N)C(=O)NCCCc1cc2cc(C(=O)Nc3cc(-c4ccccc4)[nH]n3)ccc2[nH]1` [Compound 62]: the IC50 worked out at 2800 nM.

On to `CC[C@H](N)C(=O)NCCCc1cc2cc(C(=O)Nc3ncnc4[nH]ncc34)ccc2[nH]1` [Compound 63], for which the half-inhibitory concentration (IC50) is 2500 nM.

As a reminder, the IC50 is the concentration at which inhibition is half-maximal.
